From PMC9887600, “Screening for Cyclotides in Sri Lankan Medicinal Plants: Discovery, Characterization, and Bioactivity Screening of Cyclotides from Geophila repens” (Journal of Natural Products, 2022)
Like-named read-outs stand apart in the source and are kept apart here. Where a SMILES comes first, the peptide text is derived from it. Bridges are numbered along the chain shown (N, C = ends).

Experiments:
[1] = Liposome leakage (carboxyfluorescein release) membrane permeabilization assay; assay type: biochemical, E. coli; details: carboxyfluorescein release at 45 min, Tris buffer pH 7.4, current study
Method: Each marker represents the mean leakage in Tris buffer, pH 7.4, with standard deviations from three experiments done at individual peptide concentrations, i.e., with no cumulative additions.
Liposomes were manufactured and their permeabilization was assayed as described previously.[48] Briefly, by dissolving an E. coli polar lipid extract in chloroform and evaporating the solvent under agitation, with a nitrogen gas flow, and then storing in vacuum, dry films were formed on the walls of a glass flask. Lipid films were resuspended in an aqueous solution of 100 mM 5(6)-carboxyfluorescein in 10 mM Tris (set to pH 7.4 at 37 °C). Suspensions were subjected to repeated extrusion through a 100 nm polycarbonate membrane in order to reduce multilamellar structures and polydispersity. Untrapped carboxyfluorescein was removed by gel filtration. Membrane permeability was measured by monitoring carboxyfluorescein efflux from the liposomes to the external low-concentration environment, resulting in loss of self-quenching and an increased fluorescence signal. […] The EC50 values are calculated from a sigmoidal dose–response curve with a variable slope to the leakage percentage as a function of the peptide concentration (log 10).

[2] = system: Staphylococcus aureus (ATCC 29213); test: Microdilution MIC assay, S. aureus; assay type: cell-based; details: lowest concentration inhibiting 100% growth; Tris buffer, triplicate
From the text: (§1) Cyclotides isolated from G. repens were subjected to a microdilution assay on 96-well plates to determine minimum inhibitory concentration (MIC values), according to a method devised to minimize the activity-inhibiting presence of rich growth media.[43] For these experiments, bacterial strains of E. coli, P. aeruginosa, and S. aureus and the fungal strain of C. albicans were used. The MIC was taken as the lowest concentration of a cyclotide where the visible growth of microbes was inhibited, i.e., 100% of cell death.
(§2) The dried cyclotides were subjected to MIC determination[43] against Staphylococcus aureus (ATCC 29213), Escherichia coli (ATCC 25922), Pseudomonas aeruginosa (ATCC 27853), and Candida albicans (ATCC 90028). The cyclotides (stock concentration of 65 μM) were dissolved in Tris buffer for the assay, and a concentration gradient of the cyclotides was screened against a microbial suspension mixed in a 1:1 ratio in each well (50 μL:50 μL). Microorganisms were grown in 3% tryptic soy broth (TSB) at 37 °C overnight, after centrifuging at 2000 rpm for 6–7 min, and bacterial pellets were washed twice and dissolved with Tris buffer. The absorbance was measured at 600 nm, and the solution was diluted to a concentration of 1 × 10^6 bacteria/mL. Dilution series were prepared using a serial dilution method with cyclotides and Tris buffer. In each plate, 50 μL of microbial suspension (approximately 50 000 cells/well) was added and incubated for 5 h. After incubation, 5 μL of 20% TSB was added to each well. Each plate was incubated based on the growth cycle of the microbe for 6, 9, 10, and 12 h at 37 °C. The minimum concentration that inhibited 100% growth was recorded as the MIC value. Triplicate assays were carried out for each sample.

[3] = system: Human Lymphoma Cell Line U-937 GTB; details: read-out: cytotoxicity, IC50, lymphoma U937; FMCA, 72 h incubation
Method: The cytotoxicity of the cyclotides was determined using the fluorometric microculture cytotoxicity assay, employing the U-937 a human lymphoma cell line. This assay is based on hydrolysis of the probe, fluorescein diacetate (FDA), by esterase in live cells containing an intact plasma membrane. The cyclotides were tested at a series of concentrations obtained by 2-fold dilutions.
Cytotoxicity activities of the pure cyclotides were evaluated using a fluorometric microculture cytotoxicity assay (FMCA),[57] which is based on the monitoring of fluorescence arising from fluorescein that is produced as a result of fluorescein diacetate (FDA) hydrolysis by cells with intact cell membranes. Human lymphoma cells (U937) suspended in cell-growth medium were dispensed into the microtiter plate containing pure cyclotides. Each well was seeded with 200 μL of cell suspension, containing approximately 20 000 cells, to give a total volume of 200 μL/well. […] After 40 min of incubation at 37 °C the fluorescence was measured at 485 nm excitation and 538 nm emission. The fluorescence in each well is proportional to the number of living cells, and cytotoxicity activity of a fraction is inversely proportional to fluorescence intensity. […] The IC50 values were calculated from a sigmoidal dose–response curve with a variable slope to the percentage viability as a function of the peptide concentration (log 10).

[4] = system: Escherichia coli (ATCC 25922); test: Microdilution MIC assay, E. coli; assay type: cell-based; details: for antimicrobial activity, MIC, Escherichia coli: lowest concentration inhibiting 100% growth, Tris buffer, triplicate
From the text: as §1, §2

[5] = system: Pseudomonas aeruginosa (ATCC 27853); test: Microdilution MIC assay, P. aeruginosa; assay type: cell-based; details: lowest concentration inhibiting 100% growth; Tris buffer, triplicate
From the text: as §1, §2

[6] = system: Candida albicans (ATCC 90028); test: Microdilution MIC assay, C. albicans; assay type: cell-based; details: lowest concentration inhibiting 100% growth; Tris buffer, triplicate
From the text: as §1, §2

[7] = system: Candida albicans (ATCC 90028); design: method as in PMID 28669767; details: previously reported; cited from earlier work
[8] = system: Pseudomonas aeruginosa (ATCC 27853); design: method as in PMID 28669767; details: previously reported; cited from earlier work
[9] = system: standard microbial strains (E. coli, P. aeruginosa, S. aureus, C. albicans); test: Microdilution MIC assay, whole panel of microorganisms; assay type: cell-based; details: highest tested concentration 32.5 μM
From the text: as §1
as §2, with “In each plate, 50 μL of microbial suspension (approximately 50 000 cells/well) was added and incubated for 5 h. After incubation, 5 μL of 20% TSB was added to each well. Each plate was incubated based on the growth cycle of the microbe for 6, 9, 10, and 12 h at 37 °C. The minimum concentration that inhibited 100% growth was recorded as the MIC value. Triplicate assays were carried out for each sample.” left out

[10] = previously; cited from earlier work
[11] = system: Staphylococcus aureus (ATCC 29213); design: method as in PMID 28669767; details: previously reported; cited from earlier work
[12] = system: Escherichia coli (ATCC 25922); design: method as in PMID 28669767; details: previously reported; cited from earlier work
[13] = system: Human Lymphoma Cell Line U-937 GTB; design: method as in PMID 21491023; details: previously reported; read-out: cytotoxicity, IC50, lymphoma U937; cited from earlier work
[14] = design: method as in PMID 28669767; details: previous liposome leakage studies; cited from earlier work

Molecule | EC50 [1] | antimicrobial activity, MIC, Staphylococcus aureus [2] | IC50 [3] | fold more active than cyO2 against E. coli ([4]; gere 1 versus cyO2 MIC) | antimicrobial activity, MIC, Escherichia coli [4] | antimicrobial activity, MIC, Pseudomonas aeruginosa [5] | antimicrobial activity, MIC, Candida albicans [6] | antimicrobial activity, MIC, Candida albicans [7] | antimicrobial activity, MIC, Pseudomonas aeruginosa [8] | minimum inhibitory concentration against panel of microorganisms [9] | concentration at which active in radial diffusion assays [10] | antimicrobial activity, MIC, Staphylococcus aureus [11] | antimicrobial activity, MIC, Escherichia coli [12] | IC50 [13] | EC50 [14]
CC[C@H](C)[C@@H]1NC(=O)[C@H](C)NC(=O)[C@H](CO)NC(=O)[C@H](CO)NC(=O)[C@H]([C@@H](C)CC)NC(=O)[C@@H]2CSSC[C@@H]3NC(=O)[C@H](C(C)C)NC(=O)[C@H](CCCCN)NC(=O)[C@H](CC(N)=O)NC(=O)[C@H](CCCCN)NC(=O)[C@@H]4CSSC[C@H](NC(=O)[C@H](CO)NC(=O)[C@H](CCC(=O)O)NC(=O)CNC(=O)[C@H](CSSC[C@H](NC(=O)CNC1=O)C(=O)N[C@@H](CO)C(=O)N4)NC(=O)[C@@H]1CCCN1C(=O)[C@H]([C@@H](C)CC)NC(=O)CNC(=O)[C@H](CC(N)=O)NC(=O)[C@H](CCCCN)NC(=O)[C@H](Cc1ccc(O)cc1)NC3=O)C(=O)N[C@@H](C(C)C)C(=O)N[C@@H](Cc1c[nH]c3ccccc13)C(=O)N[C@@H]([C@@H](C)CC)C(=O)N1CCC[C@H]1C(=O)N2 [gere 1] (cyclo(AIGCSCKNKVCYKNGIPCGESCVWIPCISS); disulfide 4-18, 6-22, 11-27) | 70 nM | >10 µM | 2000 nM | 5 fold | 4.0 µM | 7.9 µM | >10 µM | – | – | – | – | – | – | – | –
CC[C@H](C)[C@@H]1NC(=O)CNC(=O)[C@H](CC(N)=O)NC(=O)[C@H]([C@@H](C)CC)NC(=O)[C@H](Cc2ccc(O)cc2)NC(=O)[C@@H]2CSSC[C@@H]3NC(=O)CNC(=O)[C@H](Cc4ccccc4)NC(=O)[C@H](Cc4ccc(O)cc4)NC(=O)[C@H](C)NC(=O)[C@@H]4CSSC[C@H](NC(=O)[C@H](CO)NC(=O)[C@H](CSSC[C@H](NC(=O)[C@H](C)NC1=O)C(=O)NCC(=O)N[C@@H](CCC(=O)O)C(=O)N[C@@H](CO)C(=O)N4)NC(=O)CNC(=O)[C@@H]1CCCN1C(=O)[C@H]([C@@H](C)CC)NC(=O)[C@H](Cc1c[nH]c4ccccc14)NC3=O)C(=O)N[C@@H](CCCCN)C(=O)N[C@@H](CC(=O)O)C(=O)N[C@@H](CCCCN)C(=O)N[C@@H](C(C)C)C(=O)N2 [gere 2] | – | >10 µM | – | – | >10 µM | >10 µM | >10 µM | – | – | – | – | – | – | – | –
CC[C@H](C)[C@@H]1NC(=O)[C@@H]2CSSC[C@@H]3NC(=O)[C@H](C(C)C)NC(=O)[C@H](CCCCN)NC(=O)[C@H](CC(=O)O)NC(=O)[C@H](CCCCN)NC(=O)[C@@H]4CSSC[C@H](NC(=O)[C@H](CO)NC(=O)[C@H](CCC(=O)O)NC(=O)CNC(=O)[C@H](CSSC[C@H](NC(=O)CNC(=O)[C@H]([C@@H](C)CC)NC(=O)[C@H](C(C)C)NC(=O)[C@H]([C@@H](C)O)NC(=O)[C@H]([C@@H](C)O)NC1=O)C(=O)N[C@@H](CO)C(=O)N4)NC(=O)[C@@H]1CCCN1C(=O)[C@H](C(C)C)NC(=O)CNC(=O)[C@H](CC(N)=O)NC(=O)[C@H]([C@@H](C)O)NC(=O)[C@H](Cc1ccc(O)cc1)NC3=O)C(=O)N[C@@H](C(C)C)C(=O)N[C@@H](Cc1ccccc1)C(=O)N[C@@H]([C@@H](C)CC)C(=O)N1CCC[C@H]1C(=O)N2 [gere 3] | – | >10 µM | – | – | >10 µM | >10 µM | >10 µM | – | – | – | – | – | – | – | –
CC[C@H](C)[C@@H]1NC(=O)[C@H](Cc2ccccc2)NC(=O)[C@H](C(C)C)NC(=O)[C@@H]2CSSC[C@@H]3NC(=O)[C@H](CO)NC(=O)[C@@H]4CSSC[C@H](NC(=O)[C@@H]5CCCN5C(=O)[C@H](C(C)C)NC(=O)CNC(=O)[C@H](CC(N)=O)NC(=O)[C@H](CC(N)=O)NC(=O)[C@H](Cc5ccc(O)cc5)NC(=O)[C@H](CSSC[C@H](NC(=O)[C@@H]5CCCN5C1=O)C(=O)N[C@@H](Cc1ccccc1)C(=O)N[C@@H]([C@@H](C)O)C(=O)N[C@@H]([C@@H](C)O)C(=O)N[C@@H](C(C)C)C(=O)N[C@@H](C(C)C)C(=O)NCC(=O)N4)NC(=O)[C@H](C(C)C)NC(=O)[C@H](CCCCN)NC(=O)[C@H](CC(=O)O)NC(=O)[C@H](CCCCN)NC3=O)C(=O)NCC(=O)N[C@@H](CCC(=O)O)C(=O)N[C@@H](CO)C(=O)N2 [gere 4] | – | >10 µM | – | – | >10 µM | >10 µM | >10 µM | – | – | – | – | – | – | – | –
CC[C@H](C)[C@@H]1NC(=O)[C@@H]2CCCN2C(=O)[C@H](Cc2c[nH]c3ccccc23)NC(=O)[C@H](CO)NC(=O)[C@@H]2CSSC[C@@H]3NC(=O)[C@H]([C@@H](C)O)NC(=O)[C@H](CCC(=O)O)NC(=O)CNC(=O)[C@@H]4CSSC[C@H](NC(=O)CNC(=O)[C@H](CCC(N)=O)NC(=O)[C@H]([C@@H](C)O)NC(=O)[C@H](Cc5ccc(O)cc5)NC(=O)[C@H](CSSC[C@H](NC1=O)C(=O)N[C@@H](CCCCN)C(=O)N[C@@H](CCCNC(=N)N)C(=O)N[C@@H](CC(N)=O)C(=O)NCC(=O)N[C@@H](CC(C)C)C(=O)N1CCC[C@H]1C(=O)N[C@@H](C(C)C)C(=O)N4)NC(=O)[C@H]([C@@H](C)O)NC(=O)CNC(=O)[C@H](CC(C)C)NC(=O)[C@H]([C@@H](C)O)NC3=O)C(=O)N[C@@H]([C@@H](C)O)C(=O)N2 [kB7, kalata B7] (cyclo(CGETCTLGTCYTQGCTCSWPICKRNGLPV); disulfide 1-15, 5-17, 10-22) | 94 nM | – | 10200 nM | – | – | – | – | >10 µM | 1.25 µM | ≥ 32.5 µM | 2 mM | >10 µM | >10 µM | > 10000 nM | –
cycloviolacin O2 [cyO2, reference compound] | – | – | – | – | – | – | – | >10 µM | 10 µM | – | – | >10 µM | >10 µM | 260 to 1800 nM | 76 nM
